Consider 20 molecules from patent US10329295B2, “Pyrrolotriazine inhibitors of IRAK4 activity” (MERCK SHARP & DOHME CORP., priority 2015, dated 2019).

Counter-ions that a name gives are not always drawn.

GST tagged IRAK4, sequence (Q9NWZ3 whole entry): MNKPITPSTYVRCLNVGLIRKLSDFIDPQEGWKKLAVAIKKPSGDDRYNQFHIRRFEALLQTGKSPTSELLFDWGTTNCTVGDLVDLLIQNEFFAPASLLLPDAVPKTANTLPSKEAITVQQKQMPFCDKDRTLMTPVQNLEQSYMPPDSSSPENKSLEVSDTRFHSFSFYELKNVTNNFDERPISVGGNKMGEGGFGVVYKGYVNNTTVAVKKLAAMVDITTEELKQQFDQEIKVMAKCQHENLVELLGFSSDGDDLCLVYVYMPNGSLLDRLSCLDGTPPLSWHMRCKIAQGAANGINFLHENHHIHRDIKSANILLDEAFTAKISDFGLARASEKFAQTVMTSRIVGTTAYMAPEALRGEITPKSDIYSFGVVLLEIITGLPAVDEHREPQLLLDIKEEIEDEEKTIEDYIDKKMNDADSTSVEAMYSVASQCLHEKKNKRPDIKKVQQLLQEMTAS

The assay addresses GST tagged IRAK4 (Homo sapiens (Human), UniProt Q9NWZ3). As to the kind of experiment: IRAK4 Kinase Assay (IMAP fluorescence polarization). In kind it is biochemical. The note with it: 0.5 nM GST tagged IRAK4, 100 μM ATP, 30 minutes at 25° C. On the procedure: The kinase activity of IRAK4 is determined by its ability to catalyze the phosphorylation of a fluorescent polypeptide substrate. The extent of phosphorylation is measured using the IMAP technology (Molecular Devices) where the phosphorylated fluorescent substrate binds to the large M(III)-based nanoparticles which reduces the rotational speed of the substrate and thus increases its fluorescent polarization (FP).
20 μL reaction mixture contains 10 mM TriHCl, pH 7.2, 0.5 nM GST tagged IRAK4 (SignalChem), 100 nM fluorescent peptide substrate (RP7030, Molecular Devices), 100 μM ATP, 1 mM DDT, 1 mM MgCl2, and 0.01% Tween 20. The reaction is initiated by the addition of ATP. After incubation for 30 minutes at 25° C., 60 μL of Progressive IMAP Reagent (Molecular Devices) is added to stop the reaction. Change in RP7030's FP is determined by a FP reader (Analyst HT, LJL BioSystems).
On to `Cn1cc(NC(=O)c2ccc3cnc(N[C@@H]4CCCC[C@@H]4O)nn23)c(C(F)(F)F)n1` [Example 3, 2-{[(1R,2S)-2-hydroxycyclohexyl]amino}-N-[1-methyl-3-(trifluoromethyl)-1H-pyrazol-4-yl]pyrrolo[2,1-f][1,2,4]triazine-7-carboxamide trifluoroacetate], for which the IC50 came out at 322 nM.
With `Cn1cc(NC(=O)c2ccc3cnc(N[C@H]4CCC(F)(F)C[C@H]4N)nn23)c(C(F)(F)F)n1` (single isomer, unassigned) [Example 128, 2-{[(1S,2R)- or (1R,2S)-2-amino-4,4-difluorocyclohexyl]amino}-N-[1-methyl-3-(trifluoromethyl)-1H-pyrazol-4-yl]pyrrolo[2,1-f][1,2,4]triazine-7-carboxamide trifluoroacetate] the figure was 46 nM.
The value for `N[C@H]1CCCC[C@H]1Nc1ncc2ccc(C(=O)Nc3ccccc3Cl)n2n1` [Example 40, 2-{[(1R,2S)-2-aminocyclohexyl]amino}-N-(2-chlorophenyl)pyrrolo[2,1-f][1,2,4]triazine-7-carboxamide trifluoroacetate] was 3 nM; that for `O=C(Nc1ccccc1Br)c1ccc2cnc(N3C[C@@H]4CC[C@H]3CN4)nn12` (single isomer, unassigned) [Example 84, N-(2-bromophenyl)-2-[(1S,4S)- or (1R,4R)-2,5-diazabicyclo[2.2.2]oct-2-yl]pyrrolo[2,1-f][1,2,4]triazine-7-carboxamide trifluoroacetate] was 7810 nM.
With `Cn1cc(NC(=O)c2ccc3cnc(N[C@@H]4CNC[C@H](F)C4)nn23)c(C(F)F)n1` [Example 155, N-[3-(difluoromethyl)-1-methyl-1H-pyrazol-4-yl]-2-{[(3S,5R)-5-fluoropiperidin-3-yl]amino}pyrrolo[2,1-f][1,2,4]triazine-7-carboxamide], the IC50 amounted to 7 nM.
With `N#Cc1sccc1NC(=O)c1ccc2cnc(N3CC4CCC3CN4)nn12` (centres unmarked) [Example 22, N-(2-cyanothiophen-3-yl)-2-(2,5-diazabicyclo[2.2.2]oct-2-yl)pyrrolo[2,1-f][1,2,4]triazine-7-carboxamide trifluoroacetate], the IC50 was 399 nM.
The value for `Cn1cc(NC(=O)c2ccc3cnc(N4CC5CCC(C4)N5)nn23)c(C(F)(F)F)n1` [Example 82, 2-(3,8-diazabicyclo[3.2.1]oct-3-yl)-N-[1-methyl-3-(trifluoromethyl)-1H-pyrazol-4-yl]pyrrolo[2,1-f][1,2,4]triazine-7-carboxamide trifluoroacetate] was 32 nM.
With `Cn1cc(NC(=O)c2ccc3cnc(N4C[C@H]5CNC[C@@H]4C5)nn23)c(C(F)(F)F)n1` (single isomer, unassigned) [Example 117, 2-[(1S,5R)- or (1R,5S)-3,6-diazabicyclo[3.2.1]oct-6-yl]-N-[1-methyl-3-(trifluoromethyl)-1H-pyrazol-4-yl]pyrrolo[2,1-f][1,2,4]triazine-7-carboxamide] the figure was 145 nM; with `Cn1cc(NC(=O)c2ccc3cnc(N[C@@H]4CNC[C@H](F)C4)nn23)c(C(F)(F)F)n1` [Example 154, 2-{[(3S,5R)-5-fluoropiperidin-3-yl]amino}-N-[1-methyl-3-(trifluoromethyl)-1H-pyrazol-4-yl]pyrrolo[2,1-f][1,2,4]triazine-7-carboxamide], 53 nM.
With `N#Cc1sccc1NC(=O)c1ccc2cnc(N[C@@H]3CCCC[C@@H]3O)nn12` [Example 147, N-(2-cyanothiophen-3-yl)-2-{[(1R,2S)-2-hydroxycyclohexyl]amino}-pyrrolo[2,1-f][1,2,4]triazine-7-carboxamide] the figure was 396 nM.
`Cn1cc(NC(=O)c2ccc3cnc(N4C[C@@H]5CC[C@H]4CN5)nn23)c(Br)n1` (single isomer, unassigned) [Example 63, N-(3-bromo-1-methyl-1H-pyrazol-4-yl)-2-[(1S,4S)- or (1R,4R)-2,5-diazabicyclo[2.2.2]oct-2-yl]pyrrolo[2,1-f][1,2,4]triazine-7-carboxamide trifluoroacetate]: the IC50 was found to be 92 nM.
With `Cn1cc(NC(=O)c2ccc3cnc(N4C[C@H](N)C[C@H](F)C4)nn23)c(C(F)F)n1` [Example 163, 2-[(3R,5S)-3-amino-5-fluoropiperidin-1-yl]-N-[3-(difluoromethyl)-1-methyl-1H-pyrazol-4-yl]pyrrolo[2,1-f][1,2,4]triazine-7-carboxamide trifluoroacetate], it took 0.7 nM to reach half-maximal inhibition (IC50).
The value for `Cn1cc(NC(=O)c2ccc3cnc(N4C[C@H]5CNC[C@@H]4C5)nn23)c(C#N)n1` (single isomer, unassigned) [Example 134, N-(3-cyano-1-methyl-1H-pyrazol-4-yl)-2-[(1R,5S)- or (1S,5R)-3,6-diazabicyclo[3.2.1]oct-6-yl]pyrrolo[2,1-f][1,2,4]triazine-7-carboxamide] was 174 nM; that for `Cn1cc(NC(=O)c2ccc3cnc(N4CCC[C@@H](N)C4)nn23)c(C(F)(F)F)n1` [Example 7, 2-[(3R)-3-aminopiperidin-1-yl]-N-[1-methyl-3-(trifluoromethyl)-1H-pyrazol-4-yl]pyrrolo[2,1-f][1,2,4]triazine-7-carboxamide trifluoroacetate] was 0.9 nM.
For the molecule `O=C(Nc1ccsc1C(F)(F)F)c1ccc2cnc(N3C[C@H]4CC[C@@H]3CN4)nn12` (single isomer, unassigned) [Example 87, 2-[(1S,4S)- or (1R,4R)-2,5-diazabicyclo[2.2.2]oct-2-yl]-N-[2-(trifluoromethyl)thiophen-3-yl]pyrrolo[2,1-f][1,2,4]triazine-7-carboxamide trifluoroacetate], 1440 nM corresponded to half-maximal inhibition (IC50).
With `Cn1cc(NC(=O)c2ccc3cnc(NC4CCCCNC4)nn23)c(C(F)(F)F)n1` (centres unmarked) [Example 10, 2-(azepan-3-ylamino)-N-[1-methyl-3-(trifluoromethyl)-1H-pyrazol-4-yl]pyrrolo[2,1-f][1,2,4]triazine-7-carboxamide trifluoroacetate] the figure was 4 nM.
With `Cn1cc(NC(=O)c2ccc3cnc(N4CCC[C@@H](N)C4)nn23)c(C#N)n1` [Example 125, 2-[(3R)-3-aminopiperidin-1-yl]-N-(3-cyano-1-methyl-1H-pyrazol-4-yl)pyrrolo[2,1-f][1,2,4]triazine-7-carboxamide trifluoroacetate] the figure was 1 nM; with `Cn1cc(NC(=O)c2ccc3cnc(N[C@@H]4CCCC(F)(F)[C@@H]4N)nn23)c(C(F)F)n1` [Example 92, 2-{[(1R,2R)-2-amino-3,3-difluorocyclohexyl]amino}-N-[3-(difluoromethyl)-1-methyl-1H-pyrazol-4-yl]pyrrolo[2,1-f][1,2,4]triazine-7-carboxamide trifluoroacetate], 46 nM; with `Cn1cc(NC(=O)c2ccc3cnc(N[C@H]4CNC[C@H](F)C4)nn23)c(C(F)(F)F)n1` [Example 162, 2-{[(3R,5R)-5-fluoropiperidin-3-yl]amino}-N-[1-methyl-3-(trifluoromethyl)-1H-pyrazol-4-yl]pyrrolo[2,1-f][1,2,4]triazine-7-carboxamide trifluoroacetate], 18 nM.
The value for `Cn1cc(NC(=O)c2ccc3cnc(NC4CCCCNC4)nn23)c(C(F)F)n1` (centres unmarked) [Example 19, 2-(azepan-3-ylamino)-N-[3-(difluoromethyl)-1-methyl-1H-pyrazol-4-yl]pyrrolo[2,1-f][1,2,4]triazine-7-carboxamide trifluoroacetate] was 1 nM.
